Earlier results as cited in patent US20190263765A1, “SYNERGISTIC ANTICOAGULANT COMPOSITION” (priority 2018, published 2019).

Conditions: background statement

In the case of CC(=O)CC(c1ccccc1)c1c(O)c2ccccc2oc1=O (centres unmarked) [warfarin], the “clearance from the body” value is given as 72 to 96 h.
In the case of O=c1oc2ccccc2c(O)c1C1CC(c2ccc(-c3ccc(Br)cc3)cc2)Cc2ccccc21 (centres unmarked) [brodifacoum], the “clearance from the body (in words)” value is given as “requires months”.
